Test results taken from patent US5753631A, “Intercellular adhesion mediators” (Cytel Corporation, priority 1995, dated 1998).

Key:
recombinant E-selectin = molecular target: T1, recombinant E-selectin (Homo sapiens, UniProt P16581); assay: HL-60 cell binding to recombinant E-selectin; type: cell-based; details: for inhibition of binding of HL-60 cells to recombinant E-selectin: FIG. 13
T1 sequence (P16581 22-556 limits assumed): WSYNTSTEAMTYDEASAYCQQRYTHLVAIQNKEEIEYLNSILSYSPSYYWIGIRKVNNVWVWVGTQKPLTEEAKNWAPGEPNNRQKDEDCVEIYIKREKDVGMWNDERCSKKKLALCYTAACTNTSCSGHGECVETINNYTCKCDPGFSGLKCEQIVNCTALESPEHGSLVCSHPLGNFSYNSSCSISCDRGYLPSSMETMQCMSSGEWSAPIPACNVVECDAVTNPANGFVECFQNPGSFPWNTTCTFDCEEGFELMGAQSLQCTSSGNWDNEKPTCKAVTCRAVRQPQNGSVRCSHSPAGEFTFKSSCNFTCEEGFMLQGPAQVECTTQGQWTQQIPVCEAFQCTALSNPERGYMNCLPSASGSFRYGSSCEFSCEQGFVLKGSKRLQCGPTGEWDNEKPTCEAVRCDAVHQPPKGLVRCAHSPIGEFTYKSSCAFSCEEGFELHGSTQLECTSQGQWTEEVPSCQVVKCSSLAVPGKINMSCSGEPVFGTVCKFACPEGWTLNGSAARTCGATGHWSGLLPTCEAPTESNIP
Experimental: In this assay recombinant soluble E-selectin is bound to the plastic surface of a 96 well ELISA plate. Dilutions of test compounds are added to the wells followed by HL-60 cells which bear the ligand for E-selectin. The cells are allowed to adhere to the E-selectin coated assay plate and the nonadherent cells are removed by washing the plate with an automated plate washer. Bound cells are quantitated by measuring the cellular enzyme myeloperoxidase. The concentration of oligosaccharide required to achieve 50% inhibition of control adhesion is used to compare analogs for potency.
Microflex III 96 well ELISA plates were coated with 50 μL of recombinant E-selectin (4 μg/mL) in Dulbecco's phosphate buffered saline (DPBS) and incubated at room temperature for 3 hours. The plates were then washed three times with 200 μL DPBS containing bovine serum albumin (10 mg/mL: DPBS-BSA) and incubated at room temperature for 60 minutes with DPBS-BSA.
Oligosaccharides to be tested were prepared in 1.5 mL eppendorf tubes by adding enough DPBS to make each sample a 10 mM solution according to its molecular weight. The pH was adjusted to be within 7.0 and 7.4.
After 30 minutes 2×10^5 HL-60 cells (10^7 /mL) were added and incubated for 15 minutes at room temperature. The unbound cells were removed by washing the plate 3 times with HBSS containing HEPES buffer (20 mM), glucose (0.2%), CaCl2 (1 mM) and BSA (10 mg/mL). After removal of the wash buffer the bound cells remaining were lysed by addition of Nonidet P 40 (0.1%) in 25 mM citrate/phosphate buffer. After 5 minutes 50 μL of o-phenylenediamine dihydrochloride (1 mg/mL) in citrate/phosphate buffer containing 0.001% hydrogen peroxide was added to each well. After 5 to 10 minutes the development of color was halted by the addition of 40 μL of H2 SO4. Color developed was measured in a plate reading spectrophotometer at 492 nm.

[1] = system: CVF-induced acute lung injury; assay: Cobra venom factor (CVF)-induced acute lung injury in the rat; type: in vivo
Experimental: Groups of rats were pretreated with either vehicle, SLN-OH (0.6 mg/Kg), or with SLX-OH (0.6 mg/Kg) 5 minutes prior to administration of either CVF or PBS. Each bar represents the mean of 6 animals and vertical lines represent the standard error of the mean.
Groups of rats were pretreated with either vehicle or Z at the indicated doses 5 minutes prior to administration of CVF or PBS. Each point represents the mean of 6 animals and vertical lines represent the standard error of the mean.
The intravenous injection of CVF produces intravascular complement activation which results in lung injury, defined as an increase in neutrophil accumulation within the lung, an increase in pulmonary vascular permeability and in lung hemorrhage. It is likely that intravascular complement activation results in the generation of a wide range of inflammatory mediators. Of particular relevance to the studies described here is generation of the split fifth complement component, C5a, which can stimulate the release of histamine from circulating basophils and tissue mast cells. […] The expression of selectins, including P-selectin, is a necessary first step in the process of leukocyte adherence to vascular endothelium.
Animals were dosed with different oligosaccharide preparations or phosphate buffered saline (PBS) five minutes before administration of cobra venom factor (20 units/Kg, i.v.). Included in this material was an aliquot of ^125 I-bovine serum albumin (0.5 μCi) and ^51 Cr labelled autologous red blood cells (0.5 μCi) for measuring plasma extravasation and hemorrhage respectively. Thirty minutes after administration of the cobra venom factor the animals were anesthetized with ketamine hydrochloride (10 mg/Kg) and exsanguinated via the posterior vena cava. The lung vasculature was then perfused through the right cardiac ventricle with 10 mL of PBS. The lungs were removed and the amount of radioactivity remaining within the tissue assessed with a gamma scintillation counter. Increased pulmonary vascular permeability was measured as the ratio of ^125 I in lung tissue compared with the amount present in 1 mL of venous blood obtained at the time of death. Lung hemorrhage was measured as the ratio of ^51 Cr in lung tissue compared with the amount present in 1 mL of venous blood obtained at the time of death. Neutrophil accumulation in lungs was determined by measuring the myeloperoxidase activity of lungs homogenized in PBS. Myeloperoxidase activity in lung supernatants was assayed by measuring the change in absorbance at 460 nm resulting from decomposition of H2 O2 in the presence of o-dianisidine

[2] = dose range 0.15 to 1.5 mg/Kg (FIG. 17)

Row | Structure (SMILES) | inhibition of binding of HL-60 cells to recombinant E-selectin (recombinant E-selectin) | effect on CVF-induced permeability, hemorrhage, MPO / lung injury ([1]; in words, prior to CVF, 30 minutes) | IC50 (recombinant E-selectin; read-out: IC50 for inhibition of HL-60 cell binding to recombinant E-selectin) | reduction of hemorrhage [1, 2] | reduction of neutrophil MPO content [1, 2] | reduction of permeability values [1, 2] | dose at which protective effects plateau ([1]; rat, in vivo)
1 | CC(=O)NC1C(O)OC(CO)C(OC2OC(CO)C(O)C(OC3(C(=O)O)CC(O)C(NC(C)=O)C(C(O)C(O)CO)O3)C2O)C1O (centres unmarked) [SLN, reference compound] | not | did not inhibit CVF-induced neutrophil accumulation or CVF-induced lung injury |  |  |  |  | 
2 | CCO[C@@H]1O[C@H](CO)[C@H](O)[C@H](O[C@@H]2O[C@H](CO)[C@@H](O[C@@H]3O[C@H](CO)[C@H](O)[C@H](O[C@]4(C(=O)O)C[C@H](O)[C@@H](NC(C)=O)[C@H]([C@H](O)[C@H](O)CO)O4)[C@H]3O)[C@H](O[C@@H]3O[C@@H](C)[C@@H](O)[C@@H](O)[C@@H]3O)[C@H]2NC(C)=O)[C@H]1O [Z, Ethyl(sodium(5-acetamido-3,5-dideoxy-α-D-glycero-D-galacto-2-nonulopyanosylonate))-(2-3)-O-(β-D-galactopyranosyl)-(1-4)-O-((α-L-fucopyranosyl)-(1-3))-O-(2-acetamido-2-deoxy-β-D-glucopyranosyl)-(1-3)-O-β-D-galactopyranoside] | inhibited in a concentration dependent manner |  | ~500 µM | 47% | 49% | 67% | 0.6 mg/kg
